Legend:
PLC = type: cell-based, mouse
N1E-115 cells = settings: N1E-115 and other cells; cited from earlier work

Compound	desensitization of PLC activation on repeated stimulation (PLC)	translocation amplitude (PLC)	time for neurites to retract and cell soma to round up (N1E-115 cells)	duration of translocation response (long-lasting) (PLC)
neurokinin A [NKA]	incremental partial homologous desensitization	–	–	–
CCCCCCCC/C=C\CCCCCCCC(=O)OCC(O)COP(=O)(O)O (centres unmarked) [LPA, 1-oleoyl LPA]	–	25 % of BK response control values	≤ 60 s	–
NCCc1c[nH]cn1 [histamine]	–	40 % of BK-induced peak values	–	≥ 15 min
